In patent US7981903B2, “2-[2-{phenylamino}-1H-pyrrolo[2,3-D]pyrimidin-4-yl)amino] benzamide derivatives as IGF-1R inhibitors for the treatment of cancer” (GlaxoSmithKline LLC, priority 2007, dated 2011):
Where “and” joins values, the source holds several entries; their conditions need not be identical. Equal entries are not always repeated.

Legend:
[1] = target: T1, NIH-3T3 cells overexpressing human IGF-1R (Homo sapiens, UniProt P08069); test: IGF-1R cellular autophosphorylation (DELFIA); type: cell-based
T1 construct: expressed in transfected cells; host or cells: NIH-3T3 (mouse fibroblasts)
T1 sequence (P08069 31-1367): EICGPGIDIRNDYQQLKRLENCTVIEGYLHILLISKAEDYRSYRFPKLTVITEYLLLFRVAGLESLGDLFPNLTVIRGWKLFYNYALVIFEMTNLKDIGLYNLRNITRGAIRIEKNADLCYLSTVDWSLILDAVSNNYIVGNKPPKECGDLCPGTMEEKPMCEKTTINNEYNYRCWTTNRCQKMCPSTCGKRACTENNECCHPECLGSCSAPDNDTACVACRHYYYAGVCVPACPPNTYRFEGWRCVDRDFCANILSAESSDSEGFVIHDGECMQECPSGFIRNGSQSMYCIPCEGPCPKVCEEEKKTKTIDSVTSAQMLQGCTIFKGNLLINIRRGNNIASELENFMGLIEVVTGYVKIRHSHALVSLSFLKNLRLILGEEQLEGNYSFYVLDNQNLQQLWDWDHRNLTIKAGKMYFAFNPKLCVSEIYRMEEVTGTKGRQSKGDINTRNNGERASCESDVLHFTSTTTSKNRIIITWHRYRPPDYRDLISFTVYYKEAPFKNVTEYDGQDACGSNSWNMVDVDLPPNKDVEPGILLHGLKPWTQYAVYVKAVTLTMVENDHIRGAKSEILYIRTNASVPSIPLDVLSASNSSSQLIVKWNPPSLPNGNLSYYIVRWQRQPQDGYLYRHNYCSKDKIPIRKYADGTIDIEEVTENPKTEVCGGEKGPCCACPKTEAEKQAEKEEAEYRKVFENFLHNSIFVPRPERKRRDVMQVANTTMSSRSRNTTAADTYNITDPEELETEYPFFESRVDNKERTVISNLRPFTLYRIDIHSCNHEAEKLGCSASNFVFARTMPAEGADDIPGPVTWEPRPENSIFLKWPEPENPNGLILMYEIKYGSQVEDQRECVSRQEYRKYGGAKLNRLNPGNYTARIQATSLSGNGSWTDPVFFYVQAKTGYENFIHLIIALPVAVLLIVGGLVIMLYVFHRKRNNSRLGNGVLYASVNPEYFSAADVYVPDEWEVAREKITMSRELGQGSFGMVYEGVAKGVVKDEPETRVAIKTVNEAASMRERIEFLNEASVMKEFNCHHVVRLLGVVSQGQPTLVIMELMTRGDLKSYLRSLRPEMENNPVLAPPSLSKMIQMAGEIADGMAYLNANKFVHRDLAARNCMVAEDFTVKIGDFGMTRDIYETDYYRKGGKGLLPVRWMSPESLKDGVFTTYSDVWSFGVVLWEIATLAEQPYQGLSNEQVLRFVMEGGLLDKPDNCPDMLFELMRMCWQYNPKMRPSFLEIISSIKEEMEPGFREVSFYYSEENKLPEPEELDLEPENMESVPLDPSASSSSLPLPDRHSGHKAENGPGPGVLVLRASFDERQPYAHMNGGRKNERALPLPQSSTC
Method: NIH-3T3 cells overexpressing human IGF-1R or IR were plated in 96-well plates (10,000 cells/well) in culture media containing 10% fetal bovine serum and incubated at 37° C. in a 5% CO2 incubator. Twenty four hours post-plating, cells were treated with different concentrations of test compounds ranging from 30 uM to 1.5 nM. Two hours after compound addition, cells were stimulated with either human IGF-1 (30 ng/ml) or insulin (3 ug/ml) for 15 minutes. Cell lysates are analyzed for phosphorylated receptors using dissociation enhanced lanthanide fluor-immuno assay (DELFIA) with anti-IGF-1R (MAB391, R&D Systems, Minneapolis, Minn.) or anti-IRβ (sc-711, Santa Cruz Biotechnology, Santa Cruz, Calif.) capture antibody and europium-labeled anti-pTyr antibody (Eu-N1 PT66, Perkin Elmer, Waltham, Mass.) for detection. The fluorescence signal for cells treated with compounds was expressed as percent relative to 100% stimulation (IGF-1 or insulin stimulated signal).

[2] = target: T2, human IGF1R (hIGF1R) (Homo sapiens, UniProt P08069); test: TR-FRET kinase assay of purified hIGF1R; type: biochemical; settings: activated hIGF1R 0.5 nM, 10 μM ATP, values given as pIC50 category, read-out: IGF-1R pIC50 (converted)
T2 construct: containing amino acid residues 957-1367 of human IGF1R; made in house; host or cells: Sf9 cells (baculovirus)
T2 sequence (P08069 957-1367): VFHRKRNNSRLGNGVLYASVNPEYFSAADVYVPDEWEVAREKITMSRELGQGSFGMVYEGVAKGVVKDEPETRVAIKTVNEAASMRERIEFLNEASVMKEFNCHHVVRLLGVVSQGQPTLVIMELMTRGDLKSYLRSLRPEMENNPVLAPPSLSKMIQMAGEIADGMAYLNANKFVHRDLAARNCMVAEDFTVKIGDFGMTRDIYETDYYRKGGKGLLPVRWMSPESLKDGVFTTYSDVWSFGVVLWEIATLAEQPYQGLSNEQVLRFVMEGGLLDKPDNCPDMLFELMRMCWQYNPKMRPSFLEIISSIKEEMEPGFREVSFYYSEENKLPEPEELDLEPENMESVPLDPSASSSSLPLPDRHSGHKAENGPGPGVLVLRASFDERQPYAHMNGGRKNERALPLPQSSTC
Method: (§1) Time Resolved Fluorescence Resonance Energy Transfer (TR-FRET) assays were carried out on the exemplified compounds as follows:
(§2) Purity is determined by HPLC. The calculated molecular mass of the peptide is 2216 dalton. Tyrosine phosphorylation by human IGF1R (hIGF1R) or human IR (hIR) occurs as indicated (Y*) in the peptide sequence described. Solid peptide sample is dissolved to approximately 1 mM in DMSO, aliquoted, and stored at −20° C. until use. True peptide concentration is determined by amino acid analysis.
hIGF1R: GST-rTEV-IGF-1R(957-1367) containing amino acid residues 957-1367 of human IGF1R (as annotated by National Center for Biotechnology Information (NCBI) accession number NP_000866) is purified from a baculovirus expression system in Sf9 cells using Glutathione Sepharose 4FF column chromatography followed by Sephadex-200 size exclusion column chromatography. […] Samples, in 25 mM Tris-HCl, 250 mM NaCl, 5% glycerol, 1 mM DTT, pH 7.5, are stored at −80° C. until use.
(§3) hIGF1R: Activation of GST-rTEV-IGF-1R(957-1367) is achieved by a 4 minute incubation of hIGF1R (2.7 μM final) with 2 mM ATP in 50 mM HEPES, 20 mM MgCL2, 0.1 mg/ml BSA, at room temperature. Autophosphorylation is stopped by addition of EDTA (to 100 mM final). Aliquoted samples are flash frozen in liquid nitrogen and stored at −80° C. until use.
(§4) Assays are performed in 384-well (Greiner, Catalog No. 784076) microtiter plates. Reaction buffer (50 mM HEPES buffer, pH 7.5; 10 mM MgCL2; 3 mM DTT; 1 mM CHAPS; 0.1 mg/ml BSA) for peptide phosphorylation (10 μl volume) contained, in final concentrations, 500 nM biotinylated peptide substrate; 10 μM ATP; and purified, activated hIGF1R or hIR (0.5 nM). Compounds, titrated in DMSO, are evaluated at eleven concentrations ranging from 50 μM to 0.2 nM. […] Reactions are incubated for 1 hour at room temperature and are stopped by a 5 μl addition of EDTA (to 33 mM). A further addition of 5 μl detection reagents (for final 7 nM Streptavidin-APC (Perkin Elmer #CR^130-150), 1 nM Europium-labeled anti-phosphotyrosine monoclonal antibody (PerkinElmer #AD0067), added in reaction buffer (without DTT), is required for signal generation. After 30 minutes, signal is read on PerkinElmer Viewlux microplate imager or Wallac Victor fluorometer.
(§5) The data for compound concentration responses were plotted as % Inhibition, calculated with the data reduction formula 100*(1-[(U1-C2)/(C1-C2)]), versus concentration of compound, where • U is the unknown value, • C1 is the average control value obtained for DMSO only, and • C2 is the average control value obtained for reactions stopped with EDTA at • t=0.
(§6) Data were fitted to the curve described by: y=((Vmax*x)/(K+x)) where • Vmax is the upper asymptote and • K is the IC50.

[3] = target: T3, human IR (hIR) (Homo sapiens, UniProt P06213); test: TR-FRET kinase assay of purified hIR; type: biochemical; settings: activated hIR 0.5 nM, 10 μM ATP, values given as pIC50 category
T3 construct: containing amino acid residues 979-1382 of human IR; made in house; host or cells: Sf9 cells (baculovirus), same process as hIGF1R
T3 sequence (P06213 979-1382): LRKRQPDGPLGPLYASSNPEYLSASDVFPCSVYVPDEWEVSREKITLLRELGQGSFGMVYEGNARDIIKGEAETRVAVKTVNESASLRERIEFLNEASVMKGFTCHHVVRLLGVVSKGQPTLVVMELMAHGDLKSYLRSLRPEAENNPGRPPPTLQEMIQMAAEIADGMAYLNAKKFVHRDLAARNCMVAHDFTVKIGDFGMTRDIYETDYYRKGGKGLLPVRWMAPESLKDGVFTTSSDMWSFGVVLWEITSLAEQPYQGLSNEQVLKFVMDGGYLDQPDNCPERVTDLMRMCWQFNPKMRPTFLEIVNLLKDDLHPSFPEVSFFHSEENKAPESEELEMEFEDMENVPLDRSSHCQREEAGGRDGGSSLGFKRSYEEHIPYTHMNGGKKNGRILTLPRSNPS
Method: as §1, §2
hIR: GST-rTEV-IR(979-1382) containing amino acid residues 979-1382 of human IR (as annotated by NCBI accession number NP_000199) is expressed and purified by the same process as hIGF1R. […] Samples, in 25 mM Tris-HCl, 250 mM NaCl, 5% glycerol, 1 mM DTT, pH 7.5, are stored at −80° C. until use.
as §3, with “hIR:” for “hIGF1R:”, “5” for “4”, “hIR” for “hIGF1R”, “100” for “50”, “10” for “20”
as §4, §5, §6

[4] = target: ALK (Homo sapiens, UniProt Q9UM73); test: ALK enzyme assay (HTRF); type: biochemical; settings: 0.25 nM ALK, 15.0 μM ATP, values given as pIC50 category
ALK, sequence (Q9UM73 19-1620): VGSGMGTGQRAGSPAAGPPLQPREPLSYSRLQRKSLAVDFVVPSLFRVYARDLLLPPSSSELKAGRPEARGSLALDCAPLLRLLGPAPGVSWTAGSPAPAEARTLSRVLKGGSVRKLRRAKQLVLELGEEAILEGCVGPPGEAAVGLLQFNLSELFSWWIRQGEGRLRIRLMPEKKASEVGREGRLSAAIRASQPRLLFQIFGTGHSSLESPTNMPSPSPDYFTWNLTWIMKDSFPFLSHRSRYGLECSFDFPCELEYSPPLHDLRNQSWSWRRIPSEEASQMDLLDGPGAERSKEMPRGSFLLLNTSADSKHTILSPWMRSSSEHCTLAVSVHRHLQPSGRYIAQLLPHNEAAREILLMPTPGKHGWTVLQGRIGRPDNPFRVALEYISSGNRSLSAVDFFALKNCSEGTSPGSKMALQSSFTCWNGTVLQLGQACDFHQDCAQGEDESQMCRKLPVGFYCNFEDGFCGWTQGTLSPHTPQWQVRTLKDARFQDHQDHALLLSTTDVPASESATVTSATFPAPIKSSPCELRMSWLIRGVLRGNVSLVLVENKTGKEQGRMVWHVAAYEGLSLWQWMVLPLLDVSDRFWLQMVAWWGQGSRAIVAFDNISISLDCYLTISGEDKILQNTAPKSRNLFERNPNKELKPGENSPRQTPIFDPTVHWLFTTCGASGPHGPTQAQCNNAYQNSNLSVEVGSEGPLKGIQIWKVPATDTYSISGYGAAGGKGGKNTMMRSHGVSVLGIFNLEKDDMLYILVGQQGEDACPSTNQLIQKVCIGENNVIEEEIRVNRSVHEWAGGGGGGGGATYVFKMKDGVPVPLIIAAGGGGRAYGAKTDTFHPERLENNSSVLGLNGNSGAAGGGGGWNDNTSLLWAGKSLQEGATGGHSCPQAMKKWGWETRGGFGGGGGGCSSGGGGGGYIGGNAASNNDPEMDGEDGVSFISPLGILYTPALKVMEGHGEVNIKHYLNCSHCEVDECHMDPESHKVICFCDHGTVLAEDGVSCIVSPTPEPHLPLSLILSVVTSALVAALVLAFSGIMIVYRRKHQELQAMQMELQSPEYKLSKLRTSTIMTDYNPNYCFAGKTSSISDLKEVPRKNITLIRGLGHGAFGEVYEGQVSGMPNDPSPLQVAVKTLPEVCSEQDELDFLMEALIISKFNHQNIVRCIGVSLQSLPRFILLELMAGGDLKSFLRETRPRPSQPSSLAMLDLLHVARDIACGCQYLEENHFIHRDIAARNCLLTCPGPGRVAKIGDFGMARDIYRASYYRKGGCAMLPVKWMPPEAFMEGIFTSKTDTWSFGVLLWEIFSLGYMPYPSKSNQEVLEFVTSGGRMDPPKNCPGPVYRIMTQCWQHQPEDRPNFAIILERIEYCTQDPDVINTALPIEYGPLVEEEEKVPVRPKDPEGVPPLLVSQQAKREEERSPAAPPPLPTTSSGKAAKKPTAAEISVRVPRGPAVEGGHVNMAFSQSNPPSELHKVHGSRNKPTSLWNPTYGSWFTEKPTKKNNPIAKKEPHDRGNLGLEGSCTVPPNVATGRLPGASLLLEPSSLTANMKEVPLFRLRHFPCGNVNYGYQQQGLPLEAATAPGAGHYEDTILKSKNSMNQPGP
Method: The method measures the ability of the isolated enzyme to catalyse the transfer of the gamma-phosphate from ATP onto the tyrosine residue of a biotinylated synthetic peptide. The extent of tyrosine phosphorylation was measured using an anti-phosphotyrosine antibody, and quantified by homogenous time-resolved fluorescence (HTRF) assay purchased from CisBio (62TK0PEJ).
Reactions were performed in black 384-well polystyrene low volume plates in a final volume of 5 μl.
The reactions were then started by adding the substrate mix. The reactions were allowed to proceed for 120 minutes at 20° C. The reactions were then terminated by the addition of 5 μl HTRF detection mix to each well. The final concentrations of the detection reagents were: 50 mM HEPES (pH7.0); 0.1% BSA; 0.8 M KF; 20 mM EDTA; 1 mM CHAPS; TK-antibody Europium Cryptate; and 41 nM streptavidin-XL665. Assay plates were left unsealed, stacked and incubated at 20° for 60 minutes. Quantification of activity was achieved by counting in an Envision Counter (PerkinElmer).
Compounds under analysis were dissolved in Me2SO to 1.0 mM and serially diluted 1 to 3 with Me2SO through twelve dilutions. 0.05 μl of each concentration was transferred to the corresponding well of an assay plate. This creates a final compound concentration range from 0.00017 to 10 μM.
The data for dose responses were plotted as % Inhibition calculated with the data reduction formula 100*(1-(U1-C2)/(C1-C2)) versus concentration of compound where U is the unknown value, C1 is the average control value obtained for 1% DMSO, and C2 is the average control value obtained for 0.1 M EDTA. Data were fitted with a curve described by:
[formula] where A is the minimum y, B is the maximum y concentration [M], D is the slope factor, and x is the log10 of the compound.

Structure (SMILES) | IC50 [1] | IC50 [2] | IC50 [3] | IC50 [4]
CCCN1CCN(c2ccc(Nc3nc(Nc4ccccc4C(N)=O)c4cc[nH]c4n3)c(OC)c2)CC1 [Example 8, 2-[(2-{[2-(methyloxy)-4-(4-propyl-1-piperazinyl)phenyl]amino}-1H-pyrrolo[2,3-d]pyrimidin-4-yl)amino]benzamide] | < 100 nM | 1.26 to 3.98 nM | 0.251 to 1 nM | 
CCCN1CCC=C(c2ccc(Nc3nc(Nc4cccc(F)c4C(N)=O)c4cc[nH]c4n3)c(C)c2)C1 [Example 40, 2-fluoro-6-[(2-{[2-methyl-4-(1-propyl-1,2,5,6-tetrahydro-3-pyridinyl)phenyl]amino}-1H-pyrrolo[2,3-d]pyrimidin-4-yl)amino]benzamide] | 100 to 500 nM | 1.26 to 3.98 nM |  | 1.26 to 3.98 nM
COc1cc(C2CCCN(C)C2)ccc1Nc1nc(Nc2ccc(F)cc2C(N)=O)c2cc[nH]c2n1 (stereo not drawn) [Example 56, 5-fluoro-2-[(2-{[2-(methyloxy)-4-(1-methyl-3-piperidinyl)phenyl]amino}-1H-pyrrolo[2,3-d]pyrimidin-4-yl)amino]benzamide] | < 100 nM |  | 0.251 to 1 nM | 0.251 to 1 nM
CNC(=O)c1c(F)cccc1Nc1nc(Nc2cc3c(cc2OC)CCN3C(=O)[C@@H]2CCCN2C)nc2[nH]ccc12 [Example 128, 2-fluoro-N-methyl-6-[(2-{[5-(methyloxy)-1-(1-methyl-L-prolyl)-2,3-dihydro-1H-indol-6-yl]amino}-1H-pyrrolo[2,3-d]pyrimidin-4-yl)amino]benzamide] |  | 5.01 to 200 nM | 5.01 to 158 nM | 5.01 to 200 nM
CNC(=O)c1c(F)cccc1Nc1nc(Nc2cc3c(cc2OC)CCN3C(=O)[C@H]2CCCN2C)nc2[nH]ccc12 [Example 129, 2-fluoro-N-methyl-6-[(2-{[5-(methyloxy)-1-(1-methyl-D-prolyl)-2,3-dihydro-1H-indol-6-yl]amino}-1H-pyrrolo[2,3-d]pyrimidin-4-yl)amino]benzamide] |  | 5.01 to 200 nM | 5.01 to 158 nM | 5.01 to 200 nM

The remaining lines, values ahead:

IC50 [1] | IC50 [2] | IC50 [3] | IC50 [4] | Structure (SMILES)
 | 5.01 to 200 nM | 5.01 to 158 nM | 5.01 to 200 nM | CNC(=O)c1c(F)cccc1Nc1nc(Nc2ccc3c(c2)N(C(=O)CN(C)C)CC3)nc2[nH]ccc12 [Example 130, 2-[(2-{[1-(N,N-dimethylglycyl)-2,3-dihydro-1H-indol-6-yl]amino}-1H-pyrrolo[2,3-d]pyrimidin-4-yl)amino]-6-fluoro-N-methylbenzamide]
 | 1.26 to 3.98 nM | 1.26 to 3.98 nM | 1.26 to 3.98 nM | CNC(=O)c1c(F)cccc1Nc1nc(Nc2cc3c(cc2Cl)CCN3C(=O)CN(C)C)nc2[nH]ccc12 [Example 131, 2-[(2-{[5-chloro-1-(N,N-dimethylglycyl)-2,3-dihydro-1H-indol-6-yl]amino}-1H-pyrrolo[2,3-d]pyrimidin-4-yl)amino]-6-fluoro-N-methylbenzamide]
 | 1.26 to 3.98 nM | 1.26 to 3.98 nM | 1.26 to 3.98 nM | CCOc1cc2c(cc1Nc1nc(Nc3cccc(F)c3C(=O)NC)c3cc[nH]c3n1)N(C(=O)CN(C)C)CCC2 [Example 133, 2-[(2-{[1-(N,N-dimethylglycyl)-6-(ethyloxy)-1,2,3,4-tetrahydro-7-quinolinyl]amino}-1H-pyrrolo[2,3-d]pyrimidin-4-yl)amino]-6-fluoro-N-methylbenzamide]
 | 1.26 to 3.98 nM | 1.26 to 3.98 nM | 1.26 to 3.98 nM and 5.01 to 200 nM | CNC(=O)c1c(F)cccc1Nc1nc(Nc2cc3c(cc2OC)CCN3C(=O)CN(C)CCOC)nc2[nH]ccc12 [Example 169, 2-fluoro-N-methyl-6-[(2-{[1-{N-methyl-N-[2-(methyloxy)ethyl]glycyl}-5-(methyloxy)-2,3-dihydro-1H-indol-6-yl]amino}-1H-pyrrolo[2,3-d]pyrimidin-4-yl)amino]benzamide]
 | 0.251 to 1 nM | 0.251 to 1 nM | 1.26 to 3.98 nM | COCCN(C)CC(=O)N1CCc2cc(OC)c(Nc3nc(Nc4cccc(F)c4C(N)=O)c4cc[nH]c4n3)cc21 [Example 170, 2-fluoro-6-[(2-{[1-{N-methyl-N-[2-(methyloxy)ethyl]glycyl}-5-(methyloxy)-2,3-dihydro-1H-indol-6-yl]amino}-1H-pyrrolo[2,3-d]pyrimidin-4-yl)amino]benzamide]
 | 0.251 to 1 nM | 0.251 to 1 nM | 0.251 to 1 nM | COc1cc2c(cc1Nc1nc(Nc3cccc4c3C(=O)NC4)c3cc[nH]c3n1)N(C(=O)CN1CCCC1)CCC2 [Example 201, 7-[(2-{[6-(methyloxy)-1-(1-pyrrolidinylacetyl)-1,2,3,4-tetrahydro-7-quinolinyl]amino}-1H-pyrrolo[2,3-d]pyrimidin-4-yl)amino]-2,3-dihydro-1H-isoindol-1-one]
 | 5.01 to 200 nM | 1.26 to 3.98 nM | 0.251 to 1 nM | CNC(=O)c1c(F)cccc1Nc1nc(Nc2cc3c(cc2OC)CCN(CCF)C3)nc2[nH]ccc12 [Example 234, 2-fluoro-6-[(2-{[2-(2-fluoroethyl)-6-(methyloxy)-1,2,3,4-tetrahydro-7-isoquinolinyl]amino}-1H-pyrrolo[2,3-d]pyrimidin-4-yl)amino]-N-methylbenzamide]
